Patent US20090074885A1, “Reversible Hydrophobic Modification of Drugs for Improved Delivery to Cells” (Roche Madison Inc., priority 2003, published 2009)
“Also recorded” adds a separate entry of the source. Like-named read-outs stand apart in the source and are kept apart here.

Legend:
[1] = tested on: SK-OV-3 (human ovarian carcinoma) cells; assay: In vitro cellular uptake by fluorescence microscopy, SK-OV-3; assay type: cell-based; settings: for PI positive cells: 0.150 μmol in 220 μl via mixing chamber, 30 sec exposure; for PI positive cells, prodrug premixed with ITG: premixed with ITG (5 min) before application to the cells
Protocol: In Vitro cellular uptake of PI, RRH-PI compounds, and IV evaluated by fluorescence measurements. […] Adherent cells were plated at 2.5×10^5 cells/well on 6-well plates 24 h prior to testing. The growth media was removed from individual wells and the drug/prodrug was immediately added to the well with the mixing chamber. […] After 30 sec the drug solution was removed (aspirated) and 2 ml complete media was added to the cells. Experiments conducted with prodrug that was hydrolyzed prior to application to the cells followed a similar protocol, however the combined solution obtained after passing through the mixing chamber was collected and allowed to sit at ambient temperature for 5 min prior to application on the cells. Experiments conducted with Calcein AM (Invitrogen, 100 μl of 20 μM solution in complete media) followed a similar protocol for drug treatment (4 min treatment). Experiments conducted with SYTOX Green (Invitrogen) followed a similar protocol for drug treatment. […] Each condition was repeated in 2 or 3 wells, and the cells were immediately examined by microscopy. Fluorescent microscopy studies were conducted with a three laser LSM 510 confocal microscope, an Axiovert S100 fluorescent microscope, or an Axioplan2 fluorescent microscope (all Zeiss) equipped with filter sets for the rhodamine fluorescence channel (λex=BP 450/12, λem=LP 590 nm filter set) and the fluorescein fluorescent channel (λex=BP 546/90, λem=LP 515 nm filter set). Imaging was performed with an AxioCam digital camera (Zeiss), with AxioVision imaging software (V 4.5, Zeiss). For all images, identical camera settings and exposure times were used on comparative sample and control images. Images were processed with Photoshop (Adobe) for level and brightness using identical settings between sample and control images. For experiments conducted with IV, the cells were plated on 6-well plates with cover slips. […] Imaging was conducted on an Axioplan2 fluorescent microscope (Zeiss) and the same fields were imaged with phase contrast illumination, in the rhodamine fluorescence channel (λex=BP 450/12, λem=LP 590 nm filter set), and in the fluorescein fluorescent channel (λex=BP 546/90, λem=LP 515 nm filter set). IV was also mixed with PI and then delivered to SK-OV-3 cells, and the cells were imaged as before. In one protocol, equal amounts of IV (15.0 mM in DMSO) and PI (15.0 mM in DMSO) were combined and the resulting solution was added to cells via the mixing chamber. In a second method, PI was taken up in the ITG solution (0.748 mM) and mixed with IV (7.48 mM in DMSO) in the mixing chamber. […] The cells were imaged as before following 30 sec-4 min exposure to the drug solution.

[2] = tested on: MC38 liver metastases; assay: Liver arterial bolus injection (LABI) in mice with MC38 liver metastases; assay type: in vivo, C57BL mice; settings: for PI staining of MC38 liver metastases: hepatic artery (LABI) delivery
Protocol: All surgical procedures were performed under Isoflurane anesthesia. Liver tumors models were established in C57BL mice using MC38 (colon carcinoma) and Hepa 1-6 (hepatoma), in BALB/c mice using B16 (melanoma), and in A/J mice using NXS2 (neuroblastoma) cell lines. Mice were inoculated via the portal vein with 1×10^4 MC38 cells or 0.5-1.25×10^6 Hepa 1-6 cells, or via the tail vein with 0.5-1.25×10^6 B16 or NXS2 cells. Tumor formation was allowed to progress for 2-3 weeks with periodic examination for tumor growth prior to drug/prodrug treatment.
The right gastro-duodenal artery was freed from surrounding tissue and the common hepatic artery was clamped occluding blood flow. The distal part of the right gastroduodenal artery was sutured, a 35 G needle was inserted into the gastroduodenal artery, and secured during the single bolus injection. Following the injection, the needle was retracted and the proximal part of gastroduodenal artery was sutured, and hepatic artery flow was restored. Alternatively, the celiac trunk was clamped close to the aorta and a 35 G needle was inserted above the clamp. The left gastric, splenic, and gastro-duodenal arteries were clamped in order to direct all of the drug solution to the liver. This latter approach was advantageous in the C57BL mouse model because of anatomical variations involving the hepatic artery.
LABI delivery of drug/prodrug (0.150 μmol, 220 μl total injection volume) and controls were performed using the mixing chamber and syringe pumps as previously described. For fluorescent microscopy analysis, the livers were harvested 5 min after LABI, snap frozen in O.C.T. compound, sectioned, stained (for confocal, green—actin (Alexa 488), blue—nuclei (ToPro-3)), and analyzed by fluorescent (Axioplan2) fluorescent microscope (Zeiss) in the rhodamine fluorescence channel (λex=BP 450/12, λem=LP 590 nm filter set) or in the fluorescein fluorescent channel (λex=BP 546/90, λem=LP 515 nm filter set) due to signal intensity) and confocal microscopy (Axioplan 2, Zeiss). For experiments designed to determine the number of PI positive cells, five random fields containing liver tumors and five random fields containing portal triads void of tumor were imaged. The number of cells and positive cells were counted to determine the percentage of positive cells in the corresponding regions.

[3] = tested on: Hepa 1-6 (mouse hepatoma); assay: WST cytotoxicity assay, Hepa 1-6; assay type: cell-based; settings: for IC50: Hepa 1-6, 4 min drug exposure, read-out: Mean IC50
Protocol: (§1) Antiproliferative/Cytotoxic in vitro studies on PI, RRH-PI prodrugs, melphalan, and C12PMMA-melphalan. In vitro cytotoxicity testing was conducted on Hepa 1-6 (mouse hepatoma), SK-OV-3 (human ovarian carcinoma), and MC38 (mouse colon carcinoma) cells using a tetrazolium based assay (WST, Dojindo Molecular Technologies). For the WST assay, Hepa 1-6 (2.0×10^5 cells well), SK-OV-3 (7.5×10^5 cells well), and MC38 (8.5×10^5 cells well) were seeded in 1000 μL media into 12-well plates 24 h prior to testing (starting confluency ˜50%). Following removal of media, drug/prodrug solution was added drop-wise to quadruplicate wells, using the mixing chamber. Effective drug concentrations were calculated from the amount of drug added in the total volume of OS and aqueous solution. Following 4 min of drug solution exposure, the solution was removed, and 1000 μl fresh complete media was added to each well. After the cells were incubated for 24-48 h, WST-1 (20 μl of a 5 mM solution in PBS) and N-methylphenazonium methyl sulfate (PMS, 20 μl 0.2 mM solution in PBS) were added and the cells were incubated for 1-4 h. For testing with MC38 cells, the amounts of WST-1 and PMS were doubled. Following incubation, 100 μl of sample was transferred to quadruplicate wells on a 96-well plate, and the absorbance (438 nm) values were measured on a SPECTRAmax Plus^384 microplate spectrophotometer (Molecular Devices Corporation). Data represents the mean A438 values of 16 wells with standard deviation, corrected for media contribution, and normalized against cells in media with no drug/prodrug treatment (reported as % cell viability±standard deviation).
(§2) The concentration of drug (μM) that is required for 50% inhibition in vitro is reported as the IC50. The reported values were calculated from the best fit line (Excel) for a plot of effective drug concentration against % cell viability, and include the r^2 value. The reported IC50 values for multiple RRH-PI plots are reported as IC50 (μM)±standard deviation.

[4] = tested on: SK-OV-3 (human ovarian carcinoma); assay: WST cytotoxicity assay, SK-OV-3; assay type: cell-based; settings: SK-OV-3, 4 min drug exposure, read-out: Mean IC50
Protocol: as §1, §2

[5] = tested on: cells exposed to the peritoneal cavity; assay: IP application to normal mice, confocal microscopy; assay type: in vivo, mouse; settings: 10-60 min
Protocol: For evaluation of prodrug delivery to exposed tissues in the peritoneum, we tested IP application of propidium iodide, BDMSODS-PI, and C12PMMA-PI to both normal mice and in a mouse model of disseminated peritoneal ovarian cancer. All procedures were executed under Isoflurane inhalation anesthesia. In normal mice either the abdominal cavity was opened and the drug mixture was directly applied on abdominal organs (220 μL of drug-OS/ITG over 30 sec), or the drug mixture was injected through the abdominal wall (1 mL of drug-OS/ITG over 1 min). For both delivery protocols, the dual pump mixing chamber was used. After 10-60 min, the animals were euthanized and tissues were harvested, frozen, sectioned, stained with ToPro-3 and Phalloidin Alexa 488, and examined by laser confocal microscopy.

[6] = tested on: Hepa 1-6 (mouse hepatoma) cells; assay: In vitro cellular uptake by fluorescence microscopy, Hepa 1-6; assay type: cell-based; settings: 0.150 μmol in 220 μl via mixing chamber, 30 sec exposure
Protocol: In Vitro cellular uptake of PI, RRH-PI compounds, and IV evaluated by fluorescence measurements. PI and the RRH-prodrugs were tested for cellular uptake on several cell lines which included B16 (murine melanoma), Hepa 1-6 (mouse hepatoma), SK-OV-3 (also SKOV-3, human ovarian carcinoma), OVCAR-3 (human ovarian carcinoma), Jurkat (human T-lymphocyte), 293 (human embryonic kidney), and MC38 (mouse colon carcinoma) cells. Adherent cells were plated at 2.5×10^5 cells/well on 6-well plates 24 h prior to testing. The growth media was removed from individual wells and the drug/prodrug was immediately added to the well with the mixing chamber. Final drug/prodrug concentrations were 0.150 μmol in 220 μl total volume (20 μl OS, 200 μl ITG). After 30 sec the drug solution was removed (aspirated) and 2 ml complete media was added to the cells. Experiments conducted with prodrug that was hydrolyzed prior to application to the cells followed a similar protocol, however the combined solution obtained after passing through the mixing chamber was collected and allowed to sit at ambient temperature for 5 min prior to application on the cells. […] SYTOX Green (20 μl of 5 μM solution in 20 mM Hepes, pH 7.4) was added to the wells and the cells were examined. Each condition was repeated in 2 or 3 wells, and the cells were immediately examined by microscopy. Fluorescent microscopy studies were conducted with a three laser LSM 510 confocal microscope, an Axiovert S100 fluorescent microscope, or an Axioplan2 fluorescent microscope (all Zeiss) equipped with filter sets for the rhodamine fluorescence channel (λex=BP 450/12, λem=LP 590 nm filter set) and the fluorescein fluorescent channel (λex=BP 546/90, λem=LP 515 nm filter set). Imaging was performed with an AxioCam digital camera (Zeiss), with AxioVision imaging software (V 4.5, Zeiss). For all images, identical camera settings and exposure times were used on comparative sample and control images. Images were processed with Photoshop (Adobe) for level and brightness using identical settings between sample and control images.

CCCCCCCCCCCCCCCCCC[Si](C)(C)Nc1ccc2c(c1)c(-c1ccccc1)[n+](CCC[N+](C)(CC)CC)c1cc(N[Si](C)(C)CCCCCCCCCCCCCCCCCC)ccc21.[I-].[I-] [II, 3,8-bis[((dimethyl)octadecylsilazyl)amine] 5-(3,3-diethyl-3-methylammoniumpropyl) 6-phenyl phenanthridinium diiodide]
PI positive cells [1]: nearly all of the cells being PI positive
PI positive cells, prodrug premixed with ITG [1]: very few PI positive cells
PI positive cells, prodrug premixed with ITG ([1]; listed as BDMODS-PI): did not show PI positive staining
cells PI positive in liver parenchyma region ([2]; LABI, confocal counting): 1%
cells PI positive in portal vein region ([2]; LABI, confocal counting): 23%
cells PI positive in MC38 metastases ([2]; LABI, confocal counting, average of five images): 94%
PI positive cells in other organs (heart, lung, spleen, and kidneys) ([2]; after LABI): No PI positive cells were observed in any other organ examined
total number of PI positive non tumor cells in the liver ([2]; estimated from region counts): 2-3%
PI staining of MC38 liver metastases [2]: strong nuclear staining of the metastases
PI staining of MC38 liver metastases ([2]; listed as BDMODS-PI): intense, near-exclusive PI-staining of MC38 liver metastases; also recorded: strongly labeled with PI; also recorded: nearly all cells labeled
cell viability at highest concentration tested, prodrug premixed with ITG (10 min) ([3]; Hepa 1-6, 833 μM): 108±1.3%
IC50 ([3]; WST 24 h after): 282 µM
IC50 ([3]; WST 48 h after): 334 µM
IC50 ([4]; WST 24 h after): 194 µM
IC50 ([4]; WST 48 h after): 257 µM
nuclear labeling of peritoneal tissues [5]: near-exclusive PI^+-staining of cells exposed to the peritoneal cavity
staining of cells (PI positive) [6]: strong nuclear staining in all of the cells

CC[N+](C)(CC)CCC[n+]1c(-c2ccccc2)c2cc(N)ccc2c2ccc(N)cc21.[I-].[I-] [PI, Propidium iodide, reference compound]
PI positive cells [1]: small percentage of PI positive cells
PI positive cells ([1]; listed as propidium iodide): stained very few cells
PI staining of MC38 liver metastases [2]: greatly decreased number of PI positive cells within the MC38 metastases
PI staining of MC38 liver metastases ([2]; listed as unmodified PI): Few MC38 metastases labeled
IC50 ([3]; WST 24 h after): > 1250 µM
IC50 ([3]; WST 48 h after): > 1700 µM
IC50 ([4]; WST 24 h after): > 1250 µM
IC50 ([4]; WST 48 h after): > 1700 µM
nuclear labeling of peritoneal tissues [5]: extremely rare nuclear labeling
staining of cells (PI positive) [6]: stained very few cells

CCCCCCCCCCCCNC(=O)CCC(=CCC(=O)O)C(=O)Nc1ccc2c(c1)c(-c1ccccc1)[n+](CCC[N+](C)(CC)CC)c1cc(NC(=O)C(=CCC(=O)O)CCC(=O)NCCCCCCCCCCCC)ccc21.[I-].[I-] [III, 3,8-bis-[2-(2 carboxyethylidene)-4-(dodecarbamoyl)-1-oxo-butylamine] 5-(3,3-diethyl-3-methylammoniumpropyl) 6-phenyl phenanthridinium diiodide]
PI positive cells [1]: paralleled the results obtained with II
PI staining of MC38 liver metastases [2]: paralleled the results detailed with II
nuclear labeling of peritoneal tissues [5]: near-exclusive PI^+-staining of cells exposed to the peritoneal cavity
staining of cells (PI positive) [6]: paralleled the results obtained with II
